# Assay results: US7786097B2, “Tricyclic compounds, compositions and methods” (Pfizer Inc., priority 2007, dated 2010)
# Columns and labels:
# [1] = system: Cortical bone formation rate (BFR); assay: Cortical bone histomorphometry, bone formation rate (BFR); assay type: in vivo; settings: AUC 0-4 hr, mice
# Procedure: During the in-life portion of each study, mice received two intraperitoneal (i.p.) injections (20 mg/kg, […]) of calcein (C-0875; Sigma-Aldrich, St. Louis, Mo.) on days 1 and 26 for bone histomorphometry measurements. Calcein incorporates into the bone mineral and allows measurement of bone formation rate. Calcein was dissolved in 2% sodium bicarbonate. During the tissue harvest, the left tibiae were excised and cleaned for cortical histomorphometry measurements. After all skin and muscle were removed, tibiae were placed in 70% ethanol 4° C.) in the dark for a minimum of 24 hours.
# Ground transverse sections were used for histomorphometric analysis of cortical bone. Bones were sectioned using a low-speed saw (Isomet, Buehler, Lake Bluff, Ill.) equipped with a diamond wafer blade. The end of each tibia was removed proximal to tibia-fibula synostosis and a […] cross-section was cut. Using a roughened glass plate and a cork, sections were ground to […] until transparent and all labels were distinguishable under a fluorescent microscope. Sections were dehydrated using the following solutions for a minimum of two minutes each: 1) 70% ethanol, 2) 95% ethanol, 3) 100% ethanol, 4) 50/50 ethanol/xylene, and 5) xylene (twice) (#534056; Sigma-Aldrich, St. Louis, Mo.). Sections were mounted using Eukitt Quick Mounting Medium (#03989, Sigma-Aldrich, St. Louis, Mo.) after which coverslip was applied. Using the Osteomeasure Bone Analysis Program (Osteometrics, Inc., Decatur, Ga.), bone formation rate was calculated by tracing the 1st and […] fluorescent labels and the inner and outer perimeter of the bone. Bone formation rate was calculated by the following equation: (Inter-label width/Label interval)*(Labeled perimeter/Bone perimeter). At least five samples were measured from each treatment group in each study.
# [2] = system: Mouse Collagen-Induced Arthritis (mCIA); assay: Therapeutic mouse collagen-induced arthritis (mCIA) model; assay type: in vivo, Male DBA/J mice; settings: Mus musculus; mice, dosing day 34 through day 49; read-out: Therapeutic mCIA (ED80 dose)
# Source text: Mouse Collagen-induced arthritis is a commonly used chronic, preclinical model of rheumatoid arthritis in which joint swelling and bone destruction occur following immunization with type II collagen. Reduction of disease incidence and severity has been shown previously to be predictive of disease-modification and signs and symptoms mitigation, respectively, in a clinical setting.
# In the therapeutic mCIA model, induction of disease incidence and severity was synchronized via LPS stimulation. Male DBA/J mice were immunized with 100 ug of bovine type II collagen (bCII) on day 0. All mice received an intraperitoneal injection of 20 μg of LPS on day 28 and disease was allowed to develop through day 34. At day 34, all mice had disease (incidence=100%) with an average severity score of seven. Dosing of compounds was initiated in the therapeutic mode on day 34 and continued through day 49. Different treatments were compared by measuring the decrease in incidence (i.e., resolution of disease) and the decrease in severity of paw swelling over time.
# [3] = system: house dust mite-induced BAL inflammatory cell influx; assay: House dust mite model of asthma, BAL inflammatory cell influx; assay type: in vivo, Mice; settings: 0.1, 1 and 10 mg/kg, p.o., b.i.d.
# Serum osteocalcin = Serum osteocalcin suppression, 28-day repeat dose mouse model; assay type: in vivo, Swiss Webster female mice; settings: mice
# Procedure: The compounds were weighed and suspended in a vehicle of 0.5% methylcellulose/0.025% tween 20 (Sigma-Aldrich, St. Louis, Mo.). Compound suspensions were homogenized using a Polytron PT-3100 tissue homogenizer to create a very fine suspension and were then sonicated for 10 minutes using a water bath sonicator. Aliquots of each suspension were made for daily dosing at 0.2 ml/dose. Swiss Webster female mice, 10-12 weeks old, 28-29 grams, (Taconic, Germantown, N.Y.) were used in accordance with the guidelines of the Institutional Animal Care and Use Committee and in accordance with NIH guidelines on laboratory animal welfare. Mice were acclimated in the Pfizer animal facility for three to seven days prior to being utilized in a study. […] Each treatment group contained 5-10 mice. To establish a dosing regimen for the studies, a pilot pharmacodynamic time course experiment was conducted to quantify TNFα repression after a single ED80 dose.
# Body weights were measured on the first and last day of each experiment. Blood samples were obtained after three weeks of dosing for a steady-state pharmacokinetic (PK) analysis. To assess compound effects on LPS-induced TNFα, all mice received an intraperitoneal injection of LPS (Salmonella typhosa, L-7895; Sigma-Aldrich, St. Louis) 2.5 hr after the last dose on day 28. Mice were sacrificed 90 minutes after LPS administration. Serum samples were quantified for osteocalcin and TNFα using the multiplex assays (Linco Research, Inc, St. Charles, Mo.; Luminex 100, Austin, Tex.). Samples were diluted 1:20 and the assay was run according to manufacturer's instructions. The osteocalcin standard was purchased separately (Biomedical Technologies Inc., Stoughton, Mass.). Mice were fasted for 4 hours before serum was collected for TNFα, and osteocalcin levels. For each experiment, outliers were detected by calculating the number of standard deviations from the mean of the group. If the value being examined was more than 2.5 standard deviations from the mean, it was excluded from the rest of the calculations.
# The individual mouse percent inhibition values were fit to a four-parameter logistic model using the dose mean for each group.
# ED50 and ED80 values were obtained for the various endpoints using a four-parameter logistic fit. For compounds which were tested multiple times, ED50 and ED80 values were obtained using four-parameter logistic fits of the combined data from multiple experiments.
# [4] = Oral dosing in portal vein-cannulated rats, portal vein plasma; assay type: in vivo; settings: oral dosing of Example 2 (30 and 200 mg/kg), four-hour time period
smiles,measurement,setting,value
"Cc1ncccc1NC(=O)c1ccc2c(c1)CC[C@@H]1C[C@@](O)(C(F)(F)F)CC[C@@]21Cc1ccccc1 [Example 1, (4βS,7R,8αR)-4β-benzyl-7-hydroxy-N-(2-methylpyridin-3-yl)-7-(trifluoromethyl)-4β,5,6,7,8,8α,9,10-octahydrophenanthrene-2-carboxamide]",Cortical bone formation rate (BFR) EAUC50,[1],0.27 µg·h/mL
same,ED80,[2],< 2 mg/kg
same,cell infiltration into BAL fluid,[3],mitigated cell infiltration into BAL fluid dose-dependently
same,Serum osteocalcin EAUC50,Serum osteocalcin; AUC 0-4 hr,1.30 µg·h/mL
same,Serum osteocalcin EAUC80,Serum osteocalcin; AUC 0-4 hr,4.20 µg·h/mL
same,Osteocalcin Suppression (ED80 dose),"Serum osteocalcin; oral gavage 28 days, serum osteocalcin",>10 mg/kg
same,detection in portal vein plasma samples,[4],detection of Example 1
